Assay results reported in US5079257A, “Indoloquinone compounds” (priority 1986, dated 1992).

Tests used:
[1] = test system: L1210 cells; assay: L1210 activity (bioliquid assay), cytotoxicity; format: cell-based; conditions: Mus musculus, read-out: ID-50 L1210
Summary of the method: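 Suspension culture in RPMI with 15% FCS and 2-mercaptoethanol (60 μmol). Continuous compound exposure for 48 hours at 37° C under 5% CO2 in humidified air. Cell numbers then counted on an electronic microcell counter.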

[2] = test system: L1210 cells; assay: L1210 activity in clonogenic assay (TNO Rijswijk); format: cell-based; conditions: Mus musculus, L1210, 192 h; 8 days continuous exposure, TNO Rijswijk; read-out: ID-50 L1210, clonogenic assay
From the text: The indoloquinones II (formula II) have been tested in respect of their cytotoxic activity against L1210 cells and R-1 cells (Rhabdomyosarcoma Cells) in a bioliquid assay at the department of oncology of the Free University of Amsterdam (Table I). In addition to this seven compounds (E.O. 1, E.O. 2, E.O. 4, E.O. 7, E.O. 9, E.O. 16 and E.O. 17) have been tested on L1210 activity in a clonogenic assay at TNO, Rijswijk. Further, the lowest active doses of the compounds E.O. 1, E.O. 2, E.O. 4 and E.O. 9 have been determined at TNO Rijswijk, according to the method described by Lamberts et al. [Oncology, 40, 301 (1983)]. (Table II). Eight indoloquinones (E.O. 1, E.O. 2, E.O. 4, E.O. 4A, E.O. 8, E.O. 9, E.O. 33 and E.O. 35) have been tested in a panel of five human tumour lines (TNO Rijswijk; Table III). From the latter group three indoloquinones (E.O. 1, E.O. 4 and E.O. 9) have been selected for a cytotoxicity study, involving five slowly growing human tumour lines (University of Freiburg; Table IV).
The L1210 clonogenic assay used was an improved variant of the method described earlier by H. MARTIN et al. [Cancer Chemother., Rep., 51 451 (1967)] and L. M. van Putten et al. [Cancer Treat. Rep., 60, 373 (1976)] for the growth into colonies of L1210 cells in a soft agar medium. From a suspension culture ~100 L1210 Cells (0.1 ml) were plated into […] culture dishes (Falcon), containing 1 ml of soft agar growth medium and the compound to be tested in appropriate concentrations. The soft agar growth medium consisted of Dulbecco medium supplemented with 15.8% horse serum, 60 μmol 2-mercapto-ethanol, 20 mg/ml L-asparagine and 0.3% bacto agar (Difco).
The culture dishes were incubated at 37° C. in an atmosphere of 1% CO2 in humidified air for 8 days. After this period of continuous drug exposure, colonies were counted and dose-effect curves were made.

[3] = test system: A 204 cells; rhabdomyosarcoma; assay: In vitro panel of human tumour lines (TNO): A 204; format: cell-based; conditions: about 72 hours; note: key: -: no inhibition of cell growth; +: total cell-kill
Summary of the method: (§1)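 Cells (5×10^4/ml, Dulbecco's medium + 10% FCS) grafted 48 h, then continuously exposed to compound (Hanks'/ethanol, final ethanol <1%) for about 72 h at 37°C, 10% CO2. Crystal violet fixation/staining; inhibiting concentration estimated qualitatively over increasing doses.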

[4] = test system: MCF7 breast cancer cells; assay: In vitro panel of human tumour lines (TNO): MCF-7; format: cell-based; conditions: about 72 hours; note: key: -: no inhibition of cell growth; +: total cell-kill
Summary of the method: (§2)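 Cells in Dulbecco's medium with 10% foetal calf serum were seeded 48 h, then exposed continuously to increasing compound concentrations (final ethanol <1%) for about 72 h at 37° in 10% CO2. Crystal violet staining after fixation; inhibiting concentration estimated qualitatively.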

[5] = test system: T 24 cells; bladder carcinoma; assay: In vitro panel of human tumour lines (TNO): T 24; format: cell-based; conditions: about 72 hours; note: key: -: no inhibition of cell growth; +: total cell-kill
Summary of the method: as §1

[6] = test system: WiDr cells; colon tumour; assay: In vitro panel of human tumour lines (TNO): WiDr; format: cell-based; conditions: about 72 hours; note: key: -: no inhibition of cell growth; +: total cell-kill
Summary of the method: as §2

[7] = test system: IgR37 cells melanoma; assay: In vitro panel of human tumour lines (TNO): IgR-37; format: cell-based; conditions: about 72 hours; note: key: -: no inhibition of cell growth; +: total cell-kill
Summary of the method: as §1

[8] = test system: lung-NSCLC tumour line; assay: Colony inhibition in vitro, continuous drug exposure (Freiburg); format: cell-based, human
Protocol: Three indoloquinones were tested at the University of Freiburg with respect to their in vitro inhibition of colony formation of the following five human tumour cell lines: lung-NSCLC, breast, renal and two colon lines.

[9] = in vivo; parameters: species or system mice; conditions: mouse, IP, single dose, suspension in carboxymethyl cellulose (2%)
Protocol: The acute toxicity experiments were carried out with male C5 Black/Rij X CBA/Rij Fl hybrid mice at TNO, Rijswijk. The drugs were administrated IP as suspensions in carboxymethyl cellulose (2%) as a single dose at the first day.

[10] = test system: L1210; assay: In vivo L1210 experiments (TNO Rijswijk); parameters: species or system mice
Protocol: The in vivo L1210 experiments were carried out in male Balb/c X DBA.2 Fl hybrid mice at TNO, Rijswijk.
In these experiments also, the drugs were administered IP as suspensions in carboxymethyl cellulose […] as a single dose at the first day.

Cn1c(/C=C/CO)c(CO)c2c1C(=O)C=C(N1CC1)C2=O [E.O. 9, 5-Aziridino-3-hydroxymethyl-1-methyl-2-[1H-indole-4,7-dione]prop-β-en-α-ol]
144%: response vs control in vivo at 2 mg/kg ([10]; Mus musculus, L1210, 2 mg/kg IP single dose, read-out: % T/C)
tox.: % T/C ([10]; 6, 8, 10 mg/kg IP single dose)
0.8 µg/mL: IC50 [2]
-: in vitro activity score, A 204 ([3]; 0.01 μg/ml) | in vitro activity score, MCF-7 ([4]; 0.01 μg/ml) | in vitro activity score, T 24 ([5]; 0.01 μg/ml) | in vitro activity score, WiDr ([6]; 0.01 μg/ml)
active: activity against the lung cell line ([8]; 0.01 μg/ml)
100%: response vs control in vivo at 4 mg/kg ([10]; Mus musculus, L1210, 4 mg/kg IP single dose, read-out: % T/C)
10 mg/kg: LD50 [9]
0.46 µg/mL: IC50 ([1]; L1210, 48 h, Table VIII)
0%: activity at 0.01 µg/mL ([8]; Homo sapiens, 0.01 μg/ml, read-out: colony formation treated/control (T/C), Lung) | activity at 0.1 µg/mL ([8]; Homo sapiens, 0.1 μg/ml, read-out: colony formation treated/control (T/C), Lung) | activity at 1 µg/mL ([8]; Homo sapiens, 1.0 μg/ml, read-out: colony formation treated/control (T/C), Lung)
+: in vitro activity score, A 204 ([3]; 0.1 μg/ml) | in vitro activity score, A 204 ([3]; 1.0 μg/ml) | in vitro activity score, A 204 ([3]; 10 μg/ml) | in vitro activity score, MCF-7 ([4]; 0.1 μg/ml) | in vitro activity score, MCF-7 ([4]; 1.0 μg/ml) | in vitro activity score, MCF-7 ([4]; 10 μg/ml) | in vitro activity score, T 24 ([5]; 0.1 μg/ml) | in vitro activity score, T 24 ([5]; 1.0 μg/ml) | in vitro activity score, T 24 ([5]; 10 μg/ml) | in vitro activity score, WiDr ([6]; 0.1 μg/ml) | in vitro activity score, WiDr ([6]; 1.0 μg/ml) | in vitro activity score, WiDr ([6]; 10 μg/ml) | in vitro activity score, IgR-37 ([7]; 0.01 μg/ml) | in vitro activity score, IgR-37 ([7]; 0.1 μg/ml) | in vitro activity score, IgR-37 ([7]; 1.0 μg/ml) | in vitro activity score, IgR-37 ([7]; 10 μg/ml)

COC(=O)OC/C=C/c1c(COC(=O)OC)c2c(n1C)C(=O)C=C(OC)C2=O [E.O. 2, Methyl 5-methoxy-3-methoxycarbonyloxymethyl-1-methyl-2-[1H-indole-4,7 dione]prop-β-en-α-yl carbonate]
0.5 µg/mL: IC50 ([1]; L1210, Table I, bioliquid assay, 48 hours)
30 to 100 mg/kg: LD50 [9]
100%: response vs control in vivo at 30 mg/kg ([10]; Mus musculus, L1210, 30 mg/kg IP single dose, read-out: % T/C) | response vs control in vivo at 60 mg/kg ([10]; Mus musculus, L1210, 60 mg/kg IP single dose, read-out: % T/C)
-: in vitro activity score, A 204 ([3]; 0.01 μg/ml) | in vitro activity score, A 204 ([3]; 0.1 μg/ml) | in vitro activity score, A 204 ([3]; 1.0 μg/ml) | in vitro activity score, MCF-7 ([4]; 0.01 μg/ml) | in vitro activity score, MCF-7 ([4]; 0.1 μg/ml) | in vitro activity score, MCF-7 ([4]; 1.0 μg/ml) | in vitro activity score, T 24 ([5]; 0.01 μg/ml) | in vitro activity score, T 24 ([5]; 0.1 μg/ml) | in vitro activity score, T 24 ([5]; 1.0 μg/ml) | in vitro activity score, WiDr ([6]; 0.01 μg/ml) | in vitro activity score, WiDr ([6]; 0.1 μg/ml) | in vitro activity score, WiDr ([6]; 1.0 μg/ml) | in vitro activity score, IgR-37 ([7]; 0.01 μg/ml) | in vitro activity score, IgR-37 ([7]; 0.1 μg/ml) | in vitro activity score, IgR-37 ([7]; 1.0 μg/ml)
tox.: % T/C ([10]; 80 mg/kg IP single dose)
3.7 µg/mL: IC50 [2]
+: in vitro activity score, A 204 ([3]; 10 μg/ml) | in vitro activity score, MCF-7 ([4]; 10 μg/ml) | in vitro activity score, T 24 ([5]; 10 μg/ml) | in vitro activity score, WiDr ([6]; 10 μg/ml) | in vitro activity score, IgR-37 ([7]; 10 μg/ml)
113%: response vs control in vivo at 40 mg/kg ([10]; Mus musculus, L1210, 40 mg/kg IP single dose, read-out: % T/C)
